Holding throughout (type): in vivo, rat
In test [1] the test system is diabetic rats. Briefly: Water consumption by diabetic rats during administration of chemicals in drinking water (Example 2). To be noted: Table 8. The source says:
(§1) Rats were first made diabetic by injection with streptozotocin, and then allowed to stabilize for a period of two weeks. […] After the two week period, the surviving diabetic rats were divided into seven groups and provided either with plain drinking water as a control, or drinking water containing one of six compositions to be tested for their effects on various parameters associated with the diabetic condition. Constituents included in these compositions, in varying combinations, were: zinc (20 mg/L); L-histidine (20 mg/L); arachidonic acid (100 mg/L); testosterone (100 mg/L); and C-Hispro (10 mg/L).
(§2) Diabetic rats receiving one of the six test compositions or control drinking water were monitored for blood glucose concentration, body weight and water consumption over a period of about one month. Values for these parameters were plotted on a graph, and a regression line drawn. […] Thus, if the blood glucose concentration increased substantially steadily over the course of the experiment, the slope of the regression line was reported along with the number of days duration during which the change was monitored.

Test [2] concerns diabetic rats. Briefly: Optimizing the level of C-Hispro intake for improving diabetes (blood glucose). The following applies: for Mean mg glucose/dL after Tmt / Mean mg glucose/dL before Tmt: 10 mg Zn/L in drinking water; for Changes of mg glucose/dL: 10 mg Zn/L, decrease. The method, then: The results presented in Table 9 were used to determine the optimal concentration of C-Hispro useful for improving the symptoms associated with diabetes. Since rats consuming water containing C-Hispro ad libitum also consumed the lowest water volume as evidenced by the results in Table 8, the optimal concentration of C-Hispro for improving the symptoms of diabetes was determined by providing animals with water containing different concentrations of c-Hispro. The amounts of consumed were determined by measuring the amount of water consumed, dividing this value by the weight of the rat and multiplying the result by the c-Hispro concentration. The amount of C-Hispro intake for the most dramatic improvement of symptoms of diabetes was about 300 μg/kg/day, based on the results presented in Tables 9 and 10. […] Similar ranges of dosages also are expected to be useful for treating diabetic mammals, including humans.

Test [3] deals with diabetic rats. Briefly: Blood glucose in diabetic rats administered arachidonic acid and 0.5 mg/kg/day L-histidine (dose optimisation). The method, then:
In the experiment used to produce the results presented in Table 11, the concentration of AA was varied and the L-histidine concentration was held constant. Thus, a range of from 3-30 mg/kg/day of AA provided a therapeutic benefit, with a range of from 10-12 mg/kg/day of AA providing the greatest benefit.

Test [4] relates to diabetic rats. Description: Blood glucose concentration changes (regression slope) during dietary feeding of defined chemical species (Example 2). To be noted: Table 6.
Description: as §1, §2

The mark [5] stands for this setting: C-Hispro intake 217 to 231 μg/kg, restricted water intake.
[6] abbreviates: C-Hispro intake 281 to 290 μg/kg, unrestricted water intake.
[7] abbreviates: C-Hispro intake 303 to 337 μg/kg, restricted water intake.
Where [8] appears, read: C-Hispro intake 386 to 466 μg/kg, unrestricted water intake.
The mark [9] stands for this setting: C-Hispro intake 448 to 463 μg/kg, restricted water intake.
Setting [10] is: C-Hispro intake 452 to 554 μg/kg, unrestricted water intake.
Setting [11] is: C-Hispro intake 554 to 597 μg/kg, restricted water intake.
Where [12] appears, read: C-Hispro intake 569 to 680 μg/kg, unrestricted water intake.
The mark [13] stands for this setting: arachidonic acid 0 mg/kg/day, 0.5 mg/kg/day L-histidine.
The mark [14] stands for this setting: arachidonic acid 2.02 to 2.39 mg/kg/day, plus 0.5 mg/kg/day L-histidine.
Where [15] appears, read: arachidonic acid 3.04 to 3.58 mg/kg/day, plus 0.5 mg/kg/day L-histidine.
Setting [16] is: arachidonic acid 4.05 to 4.78 mg/kg/day, plus 0.5 mg/kg/day L-histidine.
The mark [17] stands for this setting: arachidonic acid 5.06 to 5.97 mg/kg/day, plus 0.5 mg/kg/day L-histidine.
[18] abbreviates: arachidonic acid 10.12 to 11.95 mg/kg/day, plus 0.5 mg/kg/day L-histidine.
Where [19] appears, read: arachidonic acid 15.18 to 17.91 mg/kg/day, plus 0.5 mg/kg/day L-histidine.
Setting [20] is: arachidonic acid 20.24 to 23.88 mg/kg/day, plus 0.5 mg/kg/day L-histidine.
[21] abbreviates: arachidonic acid 25.30 to 29.85 mg/kg/day, plus 0.5 mg/kg/day L-histidine.

Results on 4 compounds are retold here after patent US5834032A, “Compositions and methods for treating diabetes” (priority 1997, dated 1998).

As to `O=C1N[C@@H](Cc2cnc[nH]2)C(=O)N2CCC[C@@H]12` [C-Hispro, cyclo-Hispro], the “water consumption compared to the other groups” value in test [1] is “lower than in the other groups tested”. In addition, the “Mean mg glucose/dL after Tmt” value is 213 ± 43 mg glucose/dL in test [2] (setting [5]); 258 ± 27 mg glucose/dL in test [2] (setting [6]); 192 ± 28 mg glucose/dL in test [2] (setting [7]); 353 ± 37 mg glucose/dL in test [2] (setting [8]); 216 ± 23 mg glucose/dL in test [2] (setting [9]); 367 ± 47 mg glucose/dL in test [2] (setting [10]). The “Mean mg glucose/dL after Tmt” value in test [2] (setting [11]) is 221 ± 12 mg glucose/dL; in test [2] (setting [12]), 314 ± 20 mg glucose/dL. In addition, the “Mean mg glucose/dL before Tmt” value stood at 372 ± 33 mg glucose/dL in test [2] (setting [5]); 373 ± 30 mg glucose/dL in test [2] (setting [6]); 422 ± 27 mg glucose/dL in test [2] (setting [7]); 411 ± 22 mg glucose/dL in test [2] (setting [8]); 342 ± 20 mg glucose/dL in test [2] (setting [9]); 417 ± 8 mg glucose/dL in test [2] (setting [10]). Besides, the “Mean mg glucose/dL before Tmt” value in test [2] (setting [11]) stood at 314 ± 24 mg glucose/dL; in test [2] (setting [12]), 359 ± 46 mg glucose/dL. Besides, the “Changes of mg glucose/dL” value was determined as 159 ± 45 mg glucose/dL in test [2] (setting [5]); 115 ± 33 mg glucose/dL in test [2] (setting [6]); 230 ± 14 mg glucose/dL in test [2] (setting [7]); 58 ± 47 mg glucose/dL in test [2] (setting [8]); 126 ± 34 mg glucose/dL in test [2] (setting [9]); 50 ± 41 mg glucose/dL in test [2] (setting [10]). Further, the “Changes of mg glucose/dL” value in test [2] (setting [11]) came out at 93 ± 32 mg glucose/dL; in test [2] (setting [12]) it was 45 ± 16 mg glucose/dL. In test [2] (based on Tables 9 and 10), the “amount of C-Hispro intake for the most dramatic improvement of symptoms of diabetes” value was “about 300 μg/kg/day”.
For `N[C@@H](Cc1c[nH]cn1)C(=O)O` [L-Histidine, L-histidine], the “effect of L-histidine in the drinking water on diabetes” value in test [3] (0.5 mg/kg L-histidine) is “improved diabetes”. In addition, in test [3] (setting [13]), the “mg glu/dL Post-Treatment” value is 304 ± 50 mg glu/dL and the “mg glu/dL Pre-Treatment” value is reported as 204 ± 22 mg glu/dL. Also, in test [3] (arachidonic acid 0 mg/kg/day, 0.5 mg/kg/day L-histidine, negative = increase), the “mg glu/dL improvement” value is recorded as -100 ± 62 mg glu/dL.
Consider `CCCCC/C=C\C/C=C\C/C=C\C/C=C\CCCC(=O)O` [arachidonic acid], for which the “range of AA providing the greatest benefit” value in test [3] (L-histidine held constant) was 10 to 12 mg/kg/day. For the same compound, the “range of AA that provided a therapeutic benefit” value in test [3] (L-histidine held constant) fell in the range of 3 to 30 mg/kg/day. For the same compound, in test [3] (L-histidine held constant (0.5 mg/kg/day)), the “optimal amount of AA for improving the symptoms of diabetes in rats” value is given as “about 10 mg/kg/day”. Also, the “mg glu/dL Post-Treatment” value is given as 321 ± 34 mg glu/dL in test [3] (setting [14]); 256 ± 25 mg glu/dL in test [3] (setting [15]); 247 ± 32 mg glu/dL in test [3] (setting [16]); 252 ± 29 mg glu/dL in test [3] (setting [17]); 187 ± 15 mg glu/dL in test [3] (setting [18]); 184 ± 16 mg glu/dL in test [3] (setting [19]). Besides, the “mg glu/dL Post-Treatment” value in test [3] (setting [20]) is given as 241 ± 18 mg glu/dL; in test [3] (setting [21]) it was 301 ± 27 mg glu/dL. Further, the “mg glu/dL Pre-Treatment” value was found to be 263 ± 48 mg glu/dL in test [3] (setting [14]); 303 ± 23 mg glu/dL in test [3] (setting [15]); 308 ± 17 mg glu/dL in test [3] (setting [16]); 426 ± 56 mg glu/dL in test [3] (setting [17]); 393 ± 23 mg glu/dL in test [3] (setting [18]); 368 ± 25 mg glu/dL in test [3] (setting [19]). The results for the “mg glu/dL Pre-Treatment” value in test [3] (setting [20]) and in test [3] (setting [21]) were 379 ± 25 mg glu/dL and 443 ± 52 mg glu/dL, respectively. The “mg glu/dL improvement” value in test [3] (setting [14]) was -58 ± 16 mg glu/dL; in test [3] (setting [15]), 47 ± 26 mg glu/dL; in test [3] (setting [16]) it was 61 ± 43 mg glu/dL; in test [3] (setting [17]) it was 174 ± 53 mg glu/dL; in test [3] (setting [18]), 206 ± 25 mg glu/dL; in test [3] (setting [19]), 184 ± 30 mg glu/dL. Besides, the “mg glu/dL improvement” value stood at 138 ± 33 mg glu/dL in test [3] (setting [20]) and 142 ± 66 mg glu/dL in test [3] (setting [21]).
For the compound `C[C@]12CC[C@H]3[C@@H](CCC4=CC(=O)CC[C@@]43C)[C@@H]1CC[C@@H]2O` [testosterone], in test [4], the “benefit of including testosterone in the composition” value was “no apparent benefit”.
